Data from US11613556B2, “Oxysterols and methods of use thereof” (Sage Therapeutics, Inc., priority 2016, dated 2023).
Like-named read-outs stand apart in the source and are kept apart here.

How the values were obtained:
Format in all cases: cell-based
[1] = target: GluN1/GluN2A glutamate receptors (human GRIN1/GRIN2A) expressed in HEK293 cells (Homo sapiens (Human), UniProt Q05586+Q12879); test: Whole-cell patch clamp of mammalian cells (Ionworks Barracuda), positive allosteric modulation, GluN1/GluN2A; conditions: for Emax: read-out: GluN2A PCA EMax (%)
Protocol: (§1) NMDA potentiation in mammalian cells which expressed NMDA receptors was assessed using the automatic patch-clamp system can be used determine the NAM activity of compounds as described below. An whole cell patch-clamp system can be used determine the PAM activity of compounds as described below.
(§2) The measurements were performed using Ion Works Barracuda platform following this procedure:
(§3) Electrophysiological Procedures: • a) Intracellular solution (mM): 50 mM CsCl, 90 mM CsF, 2 mM MgCl2, 5 mM EGTA, 10 mM HEPES. Adjust to pH 7.2 with CsOH. • b) Extracellular solution, HB-PS (composition in mM): NaCl, 137; KCl, 1.0; CaCl2, 5; HEPES, 10; Glucose, 10; pH adjusted to 7.4 with NaOH (refrigerated until use). • c) Holding potential: −70 mV, potential during agonist/PAM application: −40 mV.
(§4) Recording Procedure: • a) Extracellular buffer will be loaded into the PPC plate wells (11 μL per well). Cell suspension will be pipetted into the wells (9 μL per well) of the PPC planar electrode. • b) Whole-cell recording configuration will be established via patch perforation with membrane currents recorded by on-board patch clamp amplifiers. • c) Two recordings (scans) will be performed. First, during pre-application of test article alone (duration of pre-application—5 min) and second, during test articles and agonist (EC20 L-glutamate and 30 μM glycine) co-application to detect positive modulatory effects of the test article.
(§5) Test Article Administration: The first pre-application will consist of the addition of 20 μL of 2× concentrated test article solution and, second, of 20 μL of 1× concentrated test article and agonist at 10 μL/s (2 second total application time).
(§6) Potentiating Effect of Positive Allosteric Modulators (PAM) on the Channel
(§7) The maximal amplitude of the evoked currents are measured and defined as Peak Current Amplitude (PCA).

[2] = target: GluN2B glutamate receptors expressed in mammalian cells (Homo sapiens (Human), UniProt Q05586+Q13224); test: Whole-cell patch clamp of mammalian cells (Ionworks Barracuda), positive allosteric modulation, GluN2B; conditions: for Emax: read-out: GluN2B PCA EMax (%)
Protocol: as §1, §2, §3, §4, §5, §6, §7

[3] = target: glutamate-activated channels of the GRIN1/2A subtype stably transfected in HEK 293 cells (Homo sapiens (Human), UniProt Q05586+Q12879); test: Automated patch-clamp system (QPatch HTX), percent potentiation at 1 μM; conditions: HEK293, 1 μM test compound, 300 μM NMDA with 8 μM glycine, HEK 293 GRIN1/2A, read-out: GluN2A PCA % potentiation at 1 μM
Procedure, shortened: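 Tetracycline-induced HEK 293 cells stably expressing human GRIN1/2A were whole-cell recorded on QPatch HTX in Mg-free bath solution at pH 7.4. Compound at 1.0 μM (0.1% DMSO) was co-applied with submaximal 300 μM NMDA plus 8 μM glycine, and percent potentiation was recorded.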

[4] = peak current amplitude, co-application with EC20 L-glutamate and 30 μM glycine, HEK293, read-out: GluN2A PCA EC50
[5] = peak current amplitude, co-application with EC20 L-glutamate and 30 μM glycine, HEK293
[6] = peak current amplitude, co-application with EC20 L-glutamate and 30 μM glycine, read-out: GluN2B PCA EC50
[7] = peak current amplitude, co-application with EC20 L-glutamate and 30 μM glycine

GluN2B glutamate receptors expressed in mammalian cells, sequence (Q13224 27-1484, other chains not shown): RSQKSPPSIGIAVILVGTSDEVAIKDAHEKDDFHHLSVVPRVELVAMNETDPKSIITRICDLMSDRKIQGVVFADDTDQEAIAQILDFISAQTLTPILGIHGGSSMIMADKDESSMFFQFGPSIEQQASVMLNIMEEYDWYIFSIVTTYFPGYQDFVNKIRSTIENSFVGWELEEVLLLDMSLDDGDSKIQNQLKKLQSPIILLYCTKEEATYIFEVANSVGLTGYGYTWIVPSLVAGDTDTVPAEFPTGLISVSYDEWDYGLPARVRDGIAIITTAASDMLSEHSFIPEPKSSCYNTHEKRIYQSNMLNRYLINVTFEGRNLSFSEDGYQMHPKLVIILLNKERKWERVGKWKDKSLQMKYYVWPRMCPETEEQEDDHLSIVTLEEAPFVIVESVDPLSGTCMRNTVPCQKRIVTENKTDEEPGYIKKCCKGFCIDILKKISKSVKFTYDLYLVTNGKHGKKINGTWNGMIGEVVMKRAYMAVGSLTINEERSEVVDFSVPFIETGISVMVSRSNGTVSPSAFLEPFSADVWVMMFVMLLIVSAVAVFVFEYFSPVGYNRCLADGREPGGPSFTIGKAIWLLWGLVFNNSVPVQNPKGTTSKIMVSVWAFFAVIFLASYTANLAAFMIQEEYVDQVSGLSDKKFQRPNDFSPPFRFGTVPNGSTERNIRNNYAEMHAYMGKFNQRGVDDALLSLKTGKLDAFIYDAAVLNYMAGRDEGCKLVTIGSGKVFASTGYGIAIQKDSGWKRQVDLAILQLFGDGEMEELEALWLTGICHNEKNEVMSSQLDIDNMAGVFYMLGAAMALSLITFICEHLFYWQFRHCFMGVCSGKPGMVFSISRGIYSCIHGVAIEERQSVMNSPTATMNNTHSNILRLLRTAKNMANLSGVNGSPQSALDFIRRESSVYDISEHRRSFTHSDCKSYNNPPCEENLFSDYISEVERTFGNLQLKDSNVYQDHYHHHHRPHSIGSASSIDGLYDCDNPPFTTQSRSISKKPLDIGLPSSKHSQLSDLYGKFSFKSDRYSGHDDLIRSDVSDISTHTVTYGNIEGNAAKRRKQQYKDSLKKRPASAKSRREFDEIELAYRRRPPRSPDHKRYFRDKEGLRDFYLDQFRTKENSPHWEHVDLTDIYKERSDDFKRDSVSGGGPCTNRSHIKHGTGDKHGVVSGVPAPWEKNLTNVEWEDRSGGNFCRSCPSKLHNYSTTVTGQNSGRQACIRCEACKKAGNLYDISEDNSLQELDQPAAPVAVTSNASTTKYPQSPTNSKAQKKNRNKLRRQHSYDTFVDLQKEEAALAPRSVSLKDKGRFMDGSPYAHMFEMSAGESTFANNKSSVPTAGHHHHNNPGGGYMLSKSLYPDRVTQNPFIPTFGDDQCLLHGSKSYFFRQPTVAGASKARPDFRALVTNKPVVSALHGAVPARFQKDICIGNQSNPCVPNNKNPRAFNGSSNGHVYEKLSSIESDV
GluN1/GluN2A glutamate receptors (human GRIN1/GRIN2A) expressed in HEK293 cells, sequence (Q12879 whole entry, looked up, other chains not shown): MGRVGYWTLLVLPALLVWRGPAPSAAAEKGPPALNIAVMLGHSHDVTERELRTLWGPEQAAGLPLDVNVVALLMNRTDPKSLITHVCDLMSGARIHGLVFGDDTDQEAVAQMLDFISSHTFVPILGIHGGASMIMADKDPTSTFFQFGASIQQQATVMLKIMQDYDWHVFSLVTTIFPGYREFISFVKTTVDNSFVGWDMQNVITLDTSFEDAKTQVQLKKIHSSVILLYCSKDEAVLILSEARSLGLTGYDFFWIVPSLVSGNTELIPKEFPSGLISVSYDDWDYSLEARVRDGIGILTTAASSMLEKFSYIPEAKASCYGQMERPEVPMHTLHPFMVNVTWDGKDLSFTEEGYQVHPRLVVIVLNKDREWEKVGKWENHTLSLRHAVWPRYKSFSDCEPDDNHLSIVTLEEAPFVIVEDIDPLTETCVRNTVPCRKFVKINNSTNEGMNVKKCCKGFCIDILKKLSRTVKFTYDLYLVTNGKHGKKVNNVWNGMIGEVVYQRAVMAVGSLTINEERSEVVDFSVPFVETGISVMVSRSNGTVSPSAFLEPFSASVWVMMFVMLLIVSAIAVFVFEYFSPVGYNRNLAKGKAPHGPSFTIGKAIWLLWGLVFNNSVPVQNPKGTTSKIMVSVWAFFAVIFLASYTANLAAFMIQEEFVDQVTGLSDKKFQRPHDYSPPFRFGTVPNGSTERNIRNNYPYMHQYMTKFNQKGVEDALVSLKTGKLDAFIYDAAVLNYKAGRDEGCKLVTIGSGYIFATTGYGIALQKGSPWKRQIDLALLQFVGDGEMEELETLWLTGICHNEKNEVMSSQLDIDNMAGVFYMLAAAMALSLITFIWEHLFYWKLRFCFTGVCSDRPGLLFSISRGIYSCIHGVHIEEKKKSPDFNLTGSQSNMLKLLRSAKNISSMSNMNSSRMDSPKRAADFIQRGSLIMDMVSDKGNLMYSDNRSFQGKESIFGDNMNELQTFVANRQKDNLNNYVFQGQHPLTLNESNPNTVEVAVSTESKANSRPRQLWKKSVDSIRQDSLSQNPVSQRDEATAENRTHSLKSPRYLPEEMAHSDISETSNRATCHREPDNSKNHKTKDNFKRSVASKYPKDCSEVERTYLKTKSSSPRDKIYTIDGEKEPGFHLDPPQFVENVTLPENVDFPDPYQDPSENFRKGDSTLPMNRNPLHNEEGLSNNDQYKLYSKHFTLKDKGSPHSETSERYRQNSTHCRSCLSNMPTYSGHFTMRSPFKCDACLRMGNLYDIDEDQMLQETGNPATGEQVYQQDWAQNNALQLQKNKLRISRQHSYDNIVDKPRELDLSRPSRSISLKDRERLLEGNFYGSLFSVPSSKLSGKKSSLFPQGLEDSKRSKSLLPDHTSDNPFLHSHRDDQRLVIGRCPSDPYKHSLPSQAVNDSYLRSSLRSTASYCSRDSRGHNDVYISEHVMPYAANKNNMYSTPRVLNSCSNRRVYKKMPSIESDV
glutamate-activated channels of the GRIN1/2A subtype stably transfected in HEK 293 cells, sequence (Q12879 whole entry, looked up, other chains not shown): as above

SMILES	EC50 [1, 4] [nM]	Emax [1, 5] [%]	EC50 [2] [nM]	Emax [2] [%]	activation at 1 µM [3] [%]	EC50 [1] [nM]	EC50 [2, 6] [nM]	Emax [2, 7] [%]
CC[C@]1(O)CC[C@@]2(C)[C@@H](CC[C@@H]3[C@@H]2CC[C@]2(C)[C@@H]([C@H](C)[C@@H](O)CC4CCC(C)(C)CC4)CC[C@@H]32)C1 [Compound 4, (3S,5S,8R,9S,10S,13S,14S,17R)-17-((2S,3S)-4-(4,4-dimethylcyclohexyl)-3-hydroxybutan-2-yl)-3-ethyl-10,13-dimethylhexadecahydro-1H-cyclopenta[a]phenanthren-3-ol]	1 to 100	< 100	> 1000	< 100	< -40	–	–	–
CC[C@]1(O)CC[C@@]2(C)C(=CC[C@H]3[C@@H]4CC[C@H]([C@H](C)[C@H](O)CCC5CC5)[C@@]4(C)CC[C@@H]32)C1 [Compound 6, (3S,8S,9S,10R,13S,14S,17R)-17-((2S,3R)-5-cyclopropyl-3-hydroxypentan-2-yl)-3-ethyl-10,13-dimethyl-2,3,4,7,8,9,10,11,12,13,14,15,16,17-tetradecahydro-1H-cyclopenta[a]phenanthren-3-ol]	–	< 100	–	–	-10 to 10	> 1000	> 1000	< 100
CC(C)CC[C@H](O)[C@@H](C)[C@H]1CC[C@H]2[C@@H]3CC[C@H]4C[C@@](C)(O)CC[C@]4(C)[C@H]3CC[C@]12C [Compound 8, (3S,5S,8R,9S,10S,13S,14S,17R)-17-((2S,3S)-3-hydroxy-6-methylheptan-2-yl)-3,10,13-trimethylhexadecahydro-1H-cyclopenta[a]phenanthren-3-ol]	–	< 100	–	–	< -40	> 1000	> 1000	< 100
CC[C@]1(O)CC[C@@]2(C)C(=CC[C@H]3[C@@H]4CC[C@H]([C@H](C)[C@H](O)CC5CCC(C)(C)CC5)[C@@]4(C)CC[C@@H]32)C1 [Compound 12, (3S,8S,9S,10R,13S,14S,17R)-17-((2S,3R)-4-(4,4-dimethylcyclohexyl)-3-hydroxybutan-2-yl)-3-ethyl-10,13-dimethyl-2,3,4,7,8,9,10,11,12,13,14,15,16,17-tetradecahydro-1H-cyclopenta[a]phenanthren-3-ol]	–	< 100	–	–	-10 to 10	> 1000	> 1000	< 100
CC[C@]1(O)CC[C@@]2(C)[C@@H](CC[C@@H]3[C@@H]2CC[C@]2(C)[C@@H]([C@H](C)[C@H](O)CC4CCC(C)(C)CC4)CC[C@@H]32)C1 [Compound 20, (3S,5S,8R,9S,10S,13S,14S,17R)-17-((2S,3R)-4-(4,4-dimethylcyclohexyl)-3-hydroxybutan-2-yl)-3-ethyl-10,13-dimethylhexadecahydro-1H-cyclopenta[a]phenanthren-3-ol]	> 1000	< 100	> 1000	< 100	-40 to -10	–	–	–
CCC[C@H](O)[C@@H](C)[C@H]1CC[C@H]2[C@@H]3CC[C@@H]4C[C@](O)(CC)CC[C@]4(C)[C@H]3CC[C@]12C [Compound 23, (3S,5R,8R,9S,10S,13S,14S,17R)-3-ethyl-17-((2S,3S)-3-hydroxyhexan-2-yl)-10,13-dimethylhexadecahydro-1H-cyclopenta[a]phenanthren-3-ol]	–	< 100	–	–	-40 to -10	> 1000	> 1000	100 to 500
CC[C@]1(O)CC[C@@]2(C)[C@@H](CC[C@@H]3[C@@H]2CC[C@]2(C)[C@@H]([C@H](C)[C@@H](O)Cc4ccccc4)CC[C@@H]32)C1 [Compound 32, (3S,5S,8R,9S,10S,13S,14S,17R)-3-ethyl-17-((2S,3S)-3-hydroxy-4-phenylbutan-2-yl)-10,13-dimethylhexadecahydro-1H-cyclopenta[a]phenanthren-3-ol]	–	< 100	–	–	-10 to 10	> 1000	> 1000	< 100
CCC[C@H](O)[C@@H](C)[C@H]1CC[C@H]2[C@@H]3CC[C@H]4C[C@](O)(CC)CC[C@]4(C)[C@H]3CC[C@]12C [Compound 38, (3S,5S,8R,9S,10S,13S,14S,17R)-3-ethyl-17-((2S,3S)-3-hydroxyhexan-2-yl)-10,13-dimethylhexadecahydro-1H-cyclopenta[a]phenanthren-3-ol]	–	< 100	–	–	-40 to -10	> 1000	> 1000	< 100
CC[C@]1(O)CC[C@H]2[C@@H](CC[C@@H]3[C@@H]2CC[C@]2(C)[C@@H]([C@H](C)[C@H](O)CCC(C)C)CC[C@@H]32)C1 [Compound 40, (3S,5S,8R,9R,10S,13S,14S,17R)-3-ethyl-17-((2S,3R)-3-hydroxy-6-methylheptan-2-yl)-13-methylhexadecahydro-1H-cyclopenta[a]phenanthren-3-ol]	–	< 100	–	–	-10 to 10	> 1000	> 1000	100 to 500
CC[C@]1(O)CC[C@@]2(C)C(=CC[C@H]3[C@@H]4CC[C@H]([C@H](C)[C@H](O)CC5CCCC5)[C@@]4(C)CC[C@@H]32)C1 [Compound 46, (3S,8S,9S,10R,13S,14S,17R)-17-((2S,3R)-4-cyclopentyl-3-hydroxybutan-2-yl)-3-ethyl-10,13-dimethyl-2,3,4,7,8,9,10,11,12,13,14,15,16,17-tetradecahydro-1H-cyclopenta[a]phenanthren-3-ol]	–	< 100	–	–	-40 to -10	> 1000	> 1000	< 100
CC[C@]1(O)CC[C@@]2(C)[C@H](CC[C@@H]3[C@@H]2CC[C@]2(C)[C@@H]([C@H](C)[C@@H](O)CC4CCC(C)(C)CC4)CC[C@@H]32)C1 [Compound 59, (3S,5R,8R,9S,10S,13S,14S,17R)-17-((2S,3S)-4-(4,4-dimethylcyclohexyl)-3-hydroxybutan-2-yl)-3-ethyl-10,13-dimethylhexadecahydro-1H-cyclopenta[a]phenanthren-3-ol]	> 1000	< 100	> 1000	< 100	< -40	–	–	–
CC[C@]1(O)CC[C@@]2(C)[C@H](CC[C@@H]3[C@@H]2CC[C@]2(C)[C@@H]([C@H](C)[C@H](O)CC4CCCC4)CC[C@@H]32)C1 [Compound 67, (3S,5R,8R,9S,10S,13S,14S,17R)-17-((2S,3R)-4-cyclopentyl-3-hydroxybutan-2-yl)-3-ethyl-10,13-dimethylhexadecahydro-1H-cyclopenta[a]phenanthren-3-ol]	–	< 100	–	–	-10 to 10	> 1000	> 1000	< 100
CC[C@]1(O)CC[C@@]2(C)C(=CC[C@H]3[C@@H]4CC[C@H]([C@H](C)[C@@H](O)CCC5CC5)[C@@]4(C)CC[C@@H]32)C1 [Compound 69, (3S,8S,9S,10R,13S,14S,17R)-17-((2S,3S)-5-cyclopropyl-3-hydroxypentan-2-yl)-3-ethyl-10,13-dimethyl-2,3,4,7,8,9,10,11,12,13,14,15,16,17-tetradecahydro-1H-cyclopenta[a]phenanthren-3-ol]	–	< 100	–	–	-10 to 10	> 1000	> 1000	< 100
